Entries after “also recorded” stand apart in the source; their conditions may differ.
System: rice
Assay: Phenotype of transgenic rice
Type: in vivo
Protocol: Rice transformation was performed with method described in Liu Qiaoquan, Zhang Jingliu, Wang Zongyang, Hong Mengming and Gu Minghong (1998). A highly efficient transformation system mediated by Argrobacteriun tumefaciens in rice (Oryza sativa L.). Acta Phytophysiologica Sinica 24, 259-271.

mCherry: red fluorescent protein, amino acid sequence SEQ ID NO: 2
plant growth vs WT: grow better than WT; also recorded: improve the growth
seed size and grain yield per plant vs WT: increase
